Reference: ChEMBL document CHEMBL1201862, “PubChem BioAssay data set” (2004)
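Five concentrations, 48 hours, 96-well plates. Abbreviation: GI50, concentration required for 50% inhibition of growth.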 The source made the active and inactive calls. Cut-off read from the data, not from the text of the source: active = GI50 up to about 1.1 µM and inactive = higher. Where a SMILES comes first, the peptide text is derived from it. The star is where a group is joined. Fmoc = O=C(OCC1c2ccccc2-c2ccccc21)*; OtBu = CC(C)(C)O*

Assays:
Test in all cases: DTP human tumour cell line panel, 48 h
UACC-257 = tested on: UACC-257
SF-539 = tested on: SF-539
SK-OV-3 = tested on: SK-OV-3
K562 = tested on: K562
NCI-H23 = tested on: NCI-H23
A498 = tested on: A498
LXFL 529 = tested on: LXFL 529
M14 = tested on: M14
SK-MEL-28 = tested on: SK-MEL-28
RXF 393 = tested on: RXF 393
SK-MEL-5 = tested on: SK-MEL-5
UO-31 = tested on: UO-31
SF-295 = tested on: SF-295
HOP-92 = tested on: HOP-92
SR = tested on: SR
HCT-116 = tested on: HCT-116
MCF7 = tested on: MCF7
T47D = tested on: T47D
PC-3 = tested on: PC-3
RPMI-8226 = tested on: RPMI-8226

Measured: GI50

COC(=O)C(=O)C(C(=O)C(=O)Nc1cccc(C(C)=O)c1)c1nc2ccccc2nc1O (stereo not given)
inactive: UACC-257 > 100 µM | SF-539 > 100 µM | SK-OV-3 > 100 µM | K562 > 100 µM | NCI-H23 > 100 µM | A498 > 100 µM | LXFL 529 > 100 µM | M14 > 100 µM | SK-MEL-28 > 100 µM | RXF 393 > 100 µM | SK-MEL-5 > 100 µM | UO-31 > 100 µM | SF-295 > 100 µM | HOP-92 > 100 µM

COc1ccc(N2N=NN(C(C)C)/C2=C(/Cl)c2nnnn2-c2ccc(OC)cc2)cc1
inactive: UACC-257 15.3 µM | SF-539 18.8 µM | SK-OV-3 18.2 µM | K562 3.9 µM | NCI-H23 16.8 µM | A498 16 µM | M14 8.81 µM | SK-MEL-28 15.5 µM | SR 2.98 µM | HCT-116 5 µM | RXF 393 13.8 µM | MCF7 9.46 µM | T47D 4.55 µM | PC-3 14.6 µM | RPMI-8226 8.99 µM | SK-MEL-5 15.2 µM | UO-31 5.97 µM | SF-295 16.6 µM | HOP-92 2.25 µM

CSc1ncnc2c1cnn2Cc1cn(CCCCO)nn1
inactive: UACC-257 > 100 µM | SF-539 > 100 µM | SK-OV-3 > 100 µM | K562 > 100 µM | NCI-H23 > 100 µM | A498 > 100 µM | M14 > 100 µM | SK-MEL-28 > 100 µM | SR > 100 µM | HCT-116 > 100 µM | RXF 393 > 100 µM | MCF7 > 100 µM | T47D > 100 µM | PC-3 > 100 µM | RPMI-8226 > 100 µM | SK-MEL-5 > 100 µM | UO-31 > 100 µM | SF-295 > 100 µM | HOP-92 > 100 µM

CC1(c2ccc(F)cc2)CC(c2ccc(F)cc2)=C(C#N)C(=C(C#N)C#N)N1 (stereo not given)
inactive: UACC-257 15.3 µM | SF-539 25.7 µM | SK-OV-3 21.8 µM | K562 11 µM | NCI-H23 17.3 µM | A498 19.6 µM | M14 18.7 µM | SK-MEL-28 24 µM | SR 14.9 µM | HCT-116 15.6 µM | RXF 393 12.8 µM | MCF7 14.5 µM | T47D 13.3 µM | PC-3 16.3 µM | RPMI-8226 5.55 µM | SK-MEL-5 14.1 µM | UO-31 17.1 µM | SF-295 16.9 µM | HOP-92 12.6 µM

N#CC(C(=O)CCC(=O)Nc1ccc(Cl)cc1)c1ccc(Cl)cc1 (stereo not given)
inactive: UACC-257 > 100 µM | SF-539 > 100 µM | SK-OV-3 > 100 µM | K562 18.9 µM | NCI-H23 > 100 µM | A498 > 100 µM | LXFL 529 9.33 µM | M14 52 µM | HCT-116 65.9 µM | RPMI-8226 > 100 µM | SK-MEL-5 > 100 µM | UO-31 > 100 µM | SF-295 > 100 µM | HOP-92 > 100 µM

C[C@@H](NS(=O)(=O)c1ccc(NC(=O)c2ccccc2)cc1)C(=O)O
inactive: UACC-257 > 100 µM | SF-539 > 100 µM | SK-OV-3 > 100 µM | K562 > 100 µM | NCI-H23 > 100 µM | A498 > 100 µM | LXFL 529 > 100 µM | M14 > 100 µM | SK-MEL-28 > 100 µM | RXF 393 > 100 µM | RPMI-8226 > 100 µM | SK-MEL-5 > 100 µM | UO-31 > 100 µM | SF-295 > 100 µM | HOP-92 > 100 µM

CC(C)(CO)NC1=C(Cl)C(=O)c2c(O)ccc(O)c2C1=O
inactive: UACC-257 1.71 µM | SF-539 1.39 µM | SK-OV-3 1.57 µM | NCI-H23 1.58 µM | A498 1.84 µM | SK-MEL-28 1.89 µM | HCT-116 1.57 µM | RXF 393 1.85 µM | MCF7 1.33 µM | T47D 1.93 µM | PC-3 1.87 µM | RPMI-8226 2.05 µM | UO-31 1.55 µM | SF-295 1.7 µM | HOP-92 1.85 µM
active: K562 0.104 µM | M14 0.865 µM | SR 0.267 µM | SK-MEL-5 1.09 µM

O=C(O)c1c(CC(Cc2ccc3c(c2)CCCC3)C(=O)O)ccc2c1CCCC2 (stereo not given)
active: MCF7 < 0.01 µM
inactive: UACC-257 > 100 µM | SF-539 > 100 µM | SK-OV-3 > 100 µM | K562 > 100 µM | NCI-H23 > 100 µM | A498 > 100 µM | M14 > 100 µM | SK-MEL-28 > 100 µM | SR > 100 µM | HCT-116 > 100 µM | RXF 393 > 100 µM | T47D > 100 µM | PC-3 > 100 µM | RPMI-8226 > 100 µM | SK-MEL-5 > 100 µM | UO-31 > 100 µM | SF-295 > 100 µM | HOP-92 > 100 µM

COC(=O)c1c2c(cc3c1CC1(C3)Cc3cc4c(c(C(C)=O)c3C1)CCC4)C=CC2 (stereo not given)
inactive: UACC-257 > 31.6 µM | SF-539 > 31.6 µM | SK-OV-3 > 10 µM | K562 27 µM | NCI-H23 > 31.6 µM | A498 > 31.6 µM | M14 > 31.6 µM | SK-MEL-28 29.4 µM | SR 20.8 µM | HCT-116 27.9 µM | RXF 393 > 10 µM | MCF7 22.2 µM | T47D 5.69 µM | PC-3 > 31.6 µM | RPMI-8226 14.2 µM | SK-MEL-5 18.6 µM | UO-31 24.3 µM | SF-295 > 31.6 µM | HOP-92 > 31.6 µM

CC(C)(C)[Si](C)(C)OCC1OC(n2cnc3c(=O)[nH]c(N)nc32)C(O[Si](C)(C)C(C)(C)C)C1O[Si](C)(C)C(C)(C)C (stereo not given)
inactive: UACC-257 1.78 µM | SF-539 2.17 µM | SK-OV-3 1.95 µM | K562 1.22 µM | NCI-H23 1.44 µM | A498 2.39 µM | M14 1.5 µM | SK-MEL-28 1.93 µM | SR 2.39 µM | HCT-116 1.49 µM | RXF 393 2.04 µM | MCF7 2.33 µM | T47D 2.09 µM | PC-3 1.55 µM | RPMI-8226 1.14 µM | UO-31 5.11 µM | SF-295 1.55 µM | HOP-92 2.61 µM
active: SK-MEL-5 0.594 µM

CC#CC(=O)Nc1ccccc1CC(c1c[nH]c2ccccc12)c1c[nH]c2ccccc12
inactive: UACC-257 21.5 µM | SF-539 20.4 µM | SK-OV-3 18.8 µM | K562 16.1 µM | NCI-H23 18.8 µM | LXFL 529 15.1 µM | M14 15 µM | SK-MEL-28 15.7 µM | RXF 393 7.13 µM | RPMI-8226 8.32 µM | SK-MEL-5 14.2 µM | UO-31 7.19 µM | SF-295 20.3 µM

Cc1cc2c(=O)cc(-c3ccc(C(F)(F)F)cc3)oc2c(C(=O)O)c1C
inactive: UACC-257 > 100 µM | SF-539 > 100 µM | SK-OV-3 > 100 µM | K562 > 100 µM | NCI-H23 > 100 µM | LXFL 529 > 100 µM | M14 > 100 µM | SK-MEL-28 > 100 µM | HCT-116 > 100 µM | RXF 393 > 100 µM | RPMI-8226 > 100 µM | SK-MEL-5 > 100 µM | UO-31 > 100 µM | SF-295 > 100 µM

C=C1C(=O)C23CC1C[C@H](OC(C)=O)C2C1(C)C(OC(C)=O)C[C@H](O)C(C)(C)[C@H]1C(O)[C@@H]3OC(C)=O (stereo not given in full)
inactive: UACC-257 11.9 µM | SF-539 2.43 µM | SK-OV-3 24.8 µM | K562 3.56 µM | NCI-H23 12.6 µM | A498 15.1 µM | M14 6.5 µM | SK-MEL-28 11.9 µM | SR 7.48 µM | HCT-116 5.02 µM | RXF 393 7.24 µM | MCF7 5.78 µM | T47D 6.67 µM | PC-3 11.1 µM | RPMI-8226 4.27 µM | SK-MEL-5 14.6 µM | UO-31 16.9 µM | SF-295 24.8 µM | HOP-92 9.29 µM

CC(C)C(NC(=O)OCC1c2ccccc2-c2ccccc21)C(=O)NC(CCC(=O)OC(C)(C)C)C(=O)OC(C)(C)C (stereo not given) (Fmoc-Val-Glu(OtBu)-OtBu; configuration not given here)
inactive: UACC-257 > 100 µM | SF-539 24.1 µM | SK-OV-3 > 100 µM | K562 > 20.5 µM | NCI-H23 14.9 µM | A498 58.5 µM | M14 > 100 µM | SK-MEL-28 > 100 µM | SR 3.29 µM | HCT-116 4.42 µM | RXF 393 > 20 µM | MCF7 > 76.4 µM | T47D 8.57 µM | PC-3 3.99 µM | RPMI-8226 2.92 µM | SK-MEL-5 7.69 µM | UO-31 > 56.2 µM | SF-295 17.2 µM | HOP-92 > 42 µM

C[C@@H](CN1CC(=O)NC(=O)C1)N1CC(=O)NC(=O)C1 [DEXRAZOXANE]
inactive: UACC-257 492 µM | SF-539 332 µM | SK-OV-3 227 µM | K562 301 µM | NCI-H23 125 µM | A498 221 µM | M14 360 µM | SK-MEL-28 458 µM | SR 93.1 µM | HCT-116 118 µM | RXF 393 272 µM | MCF7 24.4 µM | T47D 109 µM | PC-3 180 µM | RPMI-8226 327 µM | SK-MEL-5 174 µM | UO-31 354 µM | SF-295 259 µM | HOP-92 196 µM
